Test results as given in patent US6875788B2, “Imidazoline compounds” (Les Laboratoires Servier, priority 2002, dated 2005).

Assays:
serotonin reuptake sites = molecular target: T1, serotonin reuptake sites (Rattus norvegicus, UniProt P31652); experiment: Affinity for serotonin reuptake sites, competition with [3H]-paroxetine on rat frontal cortex membranes; assay type: binding; settings: 0.25 nM [3H]-paroxetine, 2 hours, 25° C.
T1 construct: The membranes from the rat frontal cortex are prepared and incubated in triplicate; from tissue; host or cells: rat frontal cortex membranes
Description: The affinity of the compounds of the invention was determined by competition experiments with [^3H]-paroxetine. The membranes from the rat frontal cortex are prepared and incubated in triplicate for 2 hours, at 25° C., with 0.25 nM [^3H]-paroxetine and the cold ligand in a final volume of 0.4 ml. The incubation buffer contains 50 mM TRIS-HCl (pH 7.4), 120 mM NaCl and 5 mM KCl. The non-specific binding is determined using 10 μM citalopram. At the end of incubation, the medium is filtered through filters and washed three times with 5 ml of cooled buffer. The radioactivity retained on the filters is determined by liquid scintillation counting. The binding isotherms are analysed by non-linear regression in order to determine the IC50 values.

non-diabetic Wistar rats = experiment: Oral glucose tolerance test (OGTT), hypoglycaemic activity in non-diabetic Wistar rats; assay type: in vivo, rat; settings: 10 mg/kg per os 1 hour before OGTT (glucose 2 g/kg per os)
Zucker rats = experiment: Oral glucose tolerance test (OGTT), hypoglycaemic activity in Zucker fatty fa/fa rats; assay type: in vivo, rat; settings: 10 mg/kg per os 1 hour before OGTT (glucose 2 g/kg per os)
Description: Finally, the hypoglycaemic activity was evaluated in “Zucker” rats. “Zucker fatty” fa/fa rats arose following a spontaneous mutation of the 13M strain (Zucker & Zucker, 1961), and are genetically insulin-resistant and obese.
Their obesity can be observed from the age of four weeks, and is thus accompanied by insulin resistance, hyperinsulinaemia and hyperlipidaemia. […] Homeostasis was evaluated likewise by a glucose tolerance test.
(§1) Oral Glucose Tolerance Test (OGTT)
(§2) Glucose is administered per os (2 g/kg) to conscious rats. Blood samples are collected before and 10, 20, 30, 40, 60, 90 and 120 minutes after the glucose administration.
(§3) The product to be tested is administered per os 1 hour before the OGTT, and the control animals receive solvent (gum arabic).

STZ Wistar rats = experiment: Oral glucose tolerance test (OGTT), hypoglycaemic activity in STZ (streptozotocin) Wistar rats; assay type: in vivo, rat; settings: 10 mg/kg per os 1 hour before OGTT (glucose 2 g/kg per os)
Description: The hypoglycaemic activity of the compounds of the invention was examined in three-month-old male Wistar rats weighing about 250 g. An experimental diabetes is obtained by the iv injection, under ketamine hydrochloride anaesthesia, of a low dose of streptozotocin (35 mg/kg iv) dissolved in a citrate buffer. Such rats are called STZ rats and are characterised by a slight basal hyperglycaemia, a marked intolerance to glucose and a clear change in the secretion of insulin.
Homeostasis was evaluated by a glucose tolerance test, carried out two weeks after injection with streptozotocin.
as §1, §2, §3

obese ob/ob mouse = experiment: Hypolipaemic activity in the obese ob/ob mouse; assay type: in vivo; settings: oral route 30 mg/kg/day for 4 days, treated vs. untreated animals
Description: The products of the invention were tested in vivo in the obese ob/ob mouse, used as a model of obesity-associated insulin resistance. […] In this model, the compounds of the invention are thus shown also to be powerful hypolipaemics.

T1 sequence (P31652 whole entry): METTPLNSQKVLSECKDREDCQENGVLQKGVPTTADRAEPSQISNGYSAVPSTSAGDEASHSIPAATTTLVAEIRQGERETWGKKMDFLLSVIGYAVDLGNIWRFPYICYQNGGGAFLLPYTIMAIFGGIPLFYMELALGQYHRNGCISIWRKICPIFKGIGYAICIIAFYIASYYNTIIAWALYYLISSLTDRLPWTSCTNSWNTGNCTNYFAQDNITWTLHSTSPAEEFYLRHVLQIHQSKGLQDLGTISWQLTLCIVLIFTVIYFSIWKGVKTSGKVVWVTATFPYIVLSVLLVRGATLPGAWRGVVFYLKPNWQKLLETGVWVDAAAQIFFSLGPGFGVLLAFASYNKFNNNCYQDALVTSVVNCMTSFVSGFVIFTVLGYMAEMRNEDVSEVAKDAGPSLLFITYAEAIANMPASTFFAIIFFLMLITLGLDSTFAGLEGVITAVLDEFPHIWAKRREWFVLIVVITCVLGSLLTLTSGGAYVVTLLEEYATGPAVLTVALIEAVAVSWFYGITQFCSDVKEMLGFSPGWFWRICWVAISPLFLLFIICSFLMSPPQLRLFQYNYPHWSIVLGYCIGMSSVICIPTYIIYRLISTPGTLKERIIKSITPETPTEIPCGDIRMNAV

c1ccc(C(C2=NCCN2)C2CCCCC2)cc1 (stereo not drawn) [2-[cyclohexyl(phenyl)methyl]-4,5-dihydro-1H-imidazole, reference compound]
IC50 (serotonin reuptake sites): 0.15 µM

c1cc(C(C2=NCCN2)C2CCCCC2)cs1 (stereo not drawn) [Example 3, 2-[Cyclohexyl(3-thienyl)methyl]-4,5-dihydro-1H-imidazole]
IC50 (serotonin reuptake sites): 2 µM

CC1CNC(C(c2ccsc2)C2CCCCC2)=N1 (stereo not drawn) [Example 6, 2-[Cyclohexyl(3-thienyl)methyl]-4-methyl-4,5dihydro-1H-imidazole]
reduces glycaemia (non-diabetic Wistar rats): 13%
reduces glycaemia (Zucker rats): 14%
reduces glycaemia (STZ Wistar rats): 18%
lowers the triglycerides (obese ob/ob mouse): 32%
